Data as given in patent US20050148627A1, “Benzopyran compounds for use in the treatment and prevention of inflammation related conditions” (priority 2003, published 2005).
Values joined by “and” are separate entries in the source; they are usually repeats but may differ in a detail not shown here. Identical values can stand only once.

Biological target: COX-1 (Homo sapiens, UniProt P23219)
Test: biochemical

Sequence of COX-1 (P23219 24-599): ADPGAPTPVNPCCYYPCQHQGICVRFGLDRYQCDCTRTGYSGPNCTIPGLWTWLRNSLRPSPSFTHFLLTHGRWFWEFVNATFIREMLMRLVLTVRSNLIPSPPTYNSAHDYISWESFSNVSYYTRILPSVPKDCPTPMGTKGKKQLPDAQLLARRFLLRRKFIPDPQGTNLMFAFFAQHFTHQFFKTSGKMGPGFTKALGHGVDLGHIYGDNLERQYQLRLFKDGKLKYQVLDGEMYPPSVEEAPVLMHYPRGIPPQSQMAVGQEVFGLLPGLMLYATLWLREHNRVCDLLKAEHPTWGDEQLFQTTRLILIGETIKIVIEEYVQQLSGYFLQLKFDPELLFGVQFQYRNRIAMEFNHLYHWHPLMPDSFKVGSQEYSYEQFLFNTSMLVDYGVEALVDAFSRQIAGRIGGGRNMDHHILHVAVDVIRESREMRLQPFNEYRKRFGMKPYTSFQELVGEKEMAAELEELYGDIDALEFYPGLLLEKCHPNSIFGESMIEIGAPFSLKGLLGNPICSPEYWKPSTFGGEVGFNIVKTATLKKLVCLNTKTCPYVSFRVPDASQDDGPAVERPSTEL

IC50	Compound
> 500 µM	COc1ccc2c(c1OC)OC(C(F)(F)F)C(C(=O)O)=C2 (centres unmarked) [Example 4a, 7,8-dimethoxy-2-(trifluoromethyl)-2H-chromene-3-carboxylic acid]
> 500 µM	COc1c(Cl)cc2c(c1OC)OC(C(F)(F)F)C(C(=O)O)=C2 (centres unmarked) [Example 4b, 6-chloro-7,8-dimethoxy-2-(trifluoromethyl)-2H-chromene-3-carboxylic acid]
> 100 µM and 264 µM and 199 µM	O=C(O)C1=Cc2ccc(Oc3ccc([N+](=O)[O-])cc3F)cc2OC1C(F)(F)F (centres unmarked) [Example 5a, 7-(2-fluoro-4-nitrophenoxy)-2-(trifluoromethyl)-2H-chromene-3-carboxylic acid]
> 100 µM and 478 µM	COc1ccc2c(c1C)OC(C(F)(F)F)C(C(=O)O)=C2 (centres unmarked) [Example 5c, 7-methoxy-8-methyl-2-(trifluoromethyl)-2H-chromene-3-carboxylic acid]
> 100 µM	COCCOc1ccc2c(c1)OC(C(F)(F)F)C(C(=O)O)=C2 (centres unmarked) [Example 5e, 7-(2-methoxyethoxy)-2-(trifluoromethyl)-2H-chromene-3-carboxylic acid]
> 100 µM	O=C(O)C1=Cc2ccc(OCc3ccco3)cc2OC1C(F)(F)F (centres unmarked) [Example 5f, 7-(2-furylmethoxy)-2-(trifluoromethyl)-2H-chromene-3-carboxylic acid]
> 100 µM	O=C(O)COc1ccc2c(c1)OC(C(F)(F)F)C(C(=O)O)=C2 (centres unmarked) [Example 5g, 7-(carboxymethoxy)-2-(trifluoromethyl)-2H-chromene-3-carboxylic acid]
> 100 µM	CCSc1cc2c(cc1Cl)C=C(C(=O)O)C(C(F)(F)F)O2 (centres unmarked) [Example 7a, 6-chloro-7-(ethylthio)-2-(trifluoromethyl)-2H-chromene-3-carboxylic acid]
> 100 µM	CC(C)CCSc1cc2c(cc1Cl)C=C(C(=O)O)C(C(F)(F)F)O2 (centres unmarked) [Example 7b, 6-chloro-7-(isopentylthio)-2-(trifluoromethyl)-2H-chromene-3-carboxylic acid]
> 100 µM	CCCSc1cc2c(cc1Cl)C=C(C(=O)O)C(C(F)(F)F)O2 (centres unmarked) [Example 7c, 6-chloro-7-(propylthio)-2-(trifluoromethyl)-2H-chromene-3-carboxylic acid]
> 100 µM	O=C(O)C1=Cc2cc(Cl)c(SCc3ccccc3)cc2OC1C(F)(F)F (centres unmarked) [Example 7e, 7-(benzylthio)-6-chloro-2-(trifluoromethyl)-2H-chromene-3-carboxylic acid]
70.8 µM	CCCCSc1cc2c(cc1Cl)C=C(C(=O)O)C(C(F)(F)F)O2 (centres unmarked) [Example 7f, 7-(butylthio)-6-chloro-2-(trifluoromethyl)-2H-chromene-3-carboxylic acid]
7.2 µM and 6.35 µM	CCC(C)Sc1cc2c(cc1Cl)C=C(C(=O)O)C(C(F)(F)F)O2 (centres unmarked) [Example 7g, 7-(sec-butylthio)-6-chloro-2-(trifluoromethyl)-2H-chromene-3-carboxylic acid]
> 100 µM and 57.2 µM	CC1CC(C)CN(c2cc3c(cc2Cl)C=C(C(=O)O)C(C(F)(F)F)O3)C1 (centres unmarked) [Example 8a, 6-chloro-7-(3,5-dimethylpiperidin-1-yl)-2-(trifluoromethyl)-2H-chromene-3-carboxylic acid]
99 µM and 189 µM	CC1CCCN(c2cc3c(cc2Cl)C=C(C(=O)O)C(C(F)(F)F)O3)C1 (centres unmarked) [Example 8b, 6-chloro-7-(3-methylpiperidin-1-yl)-2-(trifluoromethyl)-2H-chromene-3-carboxylic acid]
> 100 µM	CC1CCN(c2cc3c(cc2Cl)C=C(C(=O)O)C(C(F)(F)F)O3)CC1 (centres unmarked) [Example 8d, 6-chloro-7-(4-methylpiperidin-1-yl)-2-(trifluoromethyl)-2H-chromene-3-carboxylic acid]
> 100 µM and 130 µM	O=C(O)C1=Cc2cc(Cl)c(N3CC=CCC3)cc2OC1C(F)(F)F (centres unmarked) [Example 8e, 6-chloro-7-(3,6-dihydropyridin-1(2H)-yl)-2-(trifluoromethyl)-2H-chromene-3-carboxylic acid]
> 100 µM	CCN(C)c1cc2c(cc1Cl)C=C(C(=O)O)C(C(F)(F)F)O2 (centres unmarked) [Example 8f, 6-chloro-7-[ethyl(methyl)amino]-2-(trifluoromethyl)-2H-chromene-3-carboxylic acid]
> 100 µM and 194 µM	CCCN(CC1CC1)c1cc2c(cc1Cl)C=C(C(=O)O)C(C(F)(F)F)O2 (centres unmarked) [Example 8g, 6-chloro-7-[(cyclopropylmethyl)(propyl)amino]-2-(trifluoromethyl)-2H-chromene-3-carboxylic acid]
> 100 µM	CCCCN(CC)c1cc2c(cc1Cl)C=C(C(=O)O)C(C(F)(F)F)O2 (centres unmarked) [Example 8h, 7-[butyl(ethyl)amino]-6-chloro-2-(trifluoromethyl)-2H-chromene-3-carboxylic acid]
14.1 µM	CN(Cc1ccccc1)c1cc2c(cc1Cl)C=C(C(=O)O)C(C(F)(F)F)O2 (centres unmarked) [Example 8i, 7-[benzyl(methyl)amino]-6-chloro-2-(trifluoromethyl)-2H-chromene-3-carboxylic acid]
> 100 µM	O=C(O)C1=Cc2cc(Cl)c(N3CCC3)cc2OC1C(F)(F)F (centres unmarked) [Example 8j, 7-azetidin-1-yl-6-chloro-2-(trifluoromethyl)-2H-chromene-3-carboxylic acid]
> 100 µM	O=C(O)C1=Cc2cc(Cl)c(NCc3ccccc3)cc2OC1C(F)(F)F (centres unmarked) [Example 8k, 7-(benzylamino)-6-chloro-2-(trifluoromethyl)-2H-chromene-3-carboxylic acid]
> 33.3 µM and > 11.1 µM and 180 µM and > 100 µM	CCN(CC)c1cc2c(cc1Cl)C=C(C(=O)O)C(C(F)(F)F)O2 (centres unmarked) [Example 8l, 6-chloro-7-(diethylamino)-2-(trifluoromethyl)-2H-chromene-3-carboxylic acid]
9.97 µM and 5.11 µM and 9.72 µM and 5.97 µM and 8.31 µM and 9.5 µM and > 1.2 µM	CCCCc1cc2c(cc1Cl)C=C(C(=O)O)C(C(F)(F)F)O2 (centres unmarked) [Example 9a, 7-butyl-6-chloro-2-(trifluoromethyl)-2H-chromene-3-carboxylic acid]
> 100 µM	O=C(O)C1=Cc2ccc(Cc3ccc(F)c(F)c3)cc2OC1C(F)(F)F (centres unmarked) [Example 9aa, 7-(3,4-difluorobenzyl)-2-(trifluoromethyl)-2H-chromene-3-carboxylic acid]

Continued, compound first:

Compound	IC50
O=C(O)C1=Cc2cc(Cl)c(OCC3CCCC3)cc2OC1C(F)(F)F (centres unmarked) [Example 2d, 6-chloro-7-(cyclopentylmethoxy)-2-(trifluoromethyl)-2H-chromene-3-carboxylic acid]	44.3 µM
CC(C)(C)CCOc1cc2c(cc1Cl)C=C(C(=O)O)C(C(F)(F)F)O2 (centres unmarked) [Example 2e, 6-chloro-7-(3,3-dimethylbutoxy)-2-(trifluoromethyl)-2H-chromene-3-carboxylic acid]	68.8 µM
O=C(O)C1=Cc2cc(Cl)c(OCc3ccccc3)cc2OC1C(F)(F)F (centres unmarked) [Example 2f, 7-(benzyloxy)-6-chloro-2-(trifluoromethyl)-2H-chromene-3-carboxylic acid]	> 100 µM
CC(C)(C)Oc1cc2c(cc1Cl)C=C(C(=O)O)C(C(F)(F)F)O2 (centres unmarked) [Example 2g, 7-tert-butoxy-6-chloro-2-(trifluoromethyl)-2H-chromene-3-carboxylic acid]	> 500 µM
COCCOc1cc2c(cc1Cl)C=C(C(=O)O)C(C(F)(F)F)O2 (centres unmarked) [Example 2h, 6-chloro-7-(2-methoxyethoxy)-2-(trifluoromethyl)-2H-chromene-3-carboxylic acid]	> 100 µM
COc1cc2c(cc1Cl)C=C(C(=O)O)C(C(F)(F)F)O2 (centres unmarked) [Example 2i, 6-chloro-7-methoxy-2-(trifluoromethyl)-2H-chromene-3-carboxylic acid]	> 100 µM and 187 µM
COc1c(Cl)cc2c(c1C)OC(C(F)(F)F)C(C(=O)O)=C2 (centres unmarked) [Example 3a, 6-chloro-7-methoxy-8-methyl-2-(trifluoromethyl)-2H-chromene-3-carboxylic acid]	> 100 µM
CCC(CC)COc1c(Cl)cc2c(c1C)OC(C(F)(F)F)C(C(=O)O)=C2 (centres unmarked) [Example 3b, 6-chloro-7-(2-ethylbutoxy)-8-methyl-2-(trifluoromethyl)-2H-chromene-3-carboxylic acid]	15.8 µM and 6.7 µM
CCCOc1c(Cl)cc2c(c1C)OC(C(F)(F)F)C(C(=O)O)=C2 (centres unmarked) [Example 3c, 6-chloro-8-methyl-7-propoxy-2-(trifluoromethyl)-2H-chromene-3-carboxylic acid]	2.3 µM
Cc1c(OCC2CC2)c(Cl)cc2c1OC(C(F)(F)F)C(C(=O)O)=C2 (centres unmarked) [Example 3d, 6-chloro-7-(cyclopropylmethoxy)-8-methyl-2-(trifluoromethyl)-2H-chromene-3-carboxylic acid]	< 0.137 µM
Cc1c(OCC(C)C)c(Cl)cc2c1OC(C(F)(F)F)C(C(=O)O)=C2 (centres unmarked) [Example 3e, 6-chloro-7-isobutoxy-8-methyl-2-(trifluoromethyl)-2H-chromene-3-carboxylic acid]	< 0.137 µM
CCCCOc1c(Cl)cc2c(c1C)OC(C(F)(F)F)C(C(=O)O)=C2 (centres unmarked) [Example 3f, 7-butoxy-6-chloro-8-methyl-2-(trifluoromethyl)-2H-chromene-3-carboxylic acid]	7.09 µM and 9.55 µM and 9.09 µM
Cc1c(OCC(C)(C)C)c(Cl)cc2c1OC(C(F)(F)F)C(C(=O)O)=C2 (centres unmarked) [Example 3g, 6-chloro-8-methyl-7-(neopentyloxy)-2-(trifluoromethyl)-2H-chromene-3-carboxylic acid]	74.4 µM and 81.2 µM
Cc1c(OCCC(C)C)c(Cl)cc2c1OC(C(F)(F)F)C(C(=O)O)=C2 (centres unmarked) [Example 3h, 6-chloro-7-(isopentyloxy)-8-methyl-2-(trifluoromethyl)-2H-chromene-3-carboxylic acid]	17 µM and 18.5 µM and 18.4 µM
Cc1c(O)c(Cl)cc2c1OC(C(F)(F)F)C(C(=O)O)=C2 (centres unmarked) [Example 3i, 6-chloro-7-hydroxy-8-methyl-2-(trifluoromethyl)-2H-chromene-3-carboxylic acid]	> 97.6 µM
CC(C)(C)Oc1ccc2c(c1)OC(C(F)(F)F)C(C(=O)O)=C2 (centres unmarked) [Example 5b, 7-tert-butoxy-2-(trifluoromethyl)-2H-chromene-3-carboxylic acid]	> 500 µM
CCC(CC)COc1ccc2c(c1C)OC(C(F)(F)F)C(C(=O)O)=C2 (centres unmarked) [Example 5d, 7-(2-ethylbutoxy)-8-methyl-2-(trifluoromethyl)-2H-chromene-3-carboxylic acid]	31.9 µM and 17.2 µM
Cc1c(Cl)cc(C(C)C)c2c1C=C(C(=O)O)C(C(F)(F)F)O2 (centres unmarked) [Example 6, 6-chloro-8-isopropyl-5-methyl-2-(trifluoromethyl)-2H-chromene-3-carboxylic acid]	> 100 µM and 188 µM and 194 µM
